Columns and labels:
rat sciatic nerve [1] = test: Bilateral sciatic nerve transection (neurotmesis) and neurorrhaphic repair, GAP-43 axon scoring; assay type: in vivo; details: for axon regeneration / ingress into the distal segment vs vehicle-treated controls: 4 days after transection and repair
Method: (§1) Surgical procedures for nerve transection and nerve crush experiments. All surgical procedures were performed according to Institutional Animal Care and Use Committee (IACUC) approved protocols. Young adult SPRAGUE DAWLEY rats (HARLAN Indianapolis, Ind.) were deeply anesthetized with xylazine (15 mg/kg, i.m.) followed by ketamine-HCl (110 mg/kg, i.p.). Six animals received bilateral nerve crush injuries. Sciatic nerves were exposed and then crushed with firm pressure for thirty seconds with a DUMONT #5 forceps at a site 4 mm distal to the tendon of the internal obdurator. The crush site was marked with an epineurial suture. In a separate set of experiments, eight rats received bilateral sciatic nerve transection injuries using serrated scissors. The proximal and distal stumps were […] by epineurial neurorrhaphy using 9-0 ETHILON sutures. Fibrin glue (fibrinogen and thrombin) was then applied to stabilize the union. In both injury models, the right sciatic nerves were injected 2-mm distal to the injury with chondroitinase ABC (1 U in 2 μl) (high-purity, protease-free; SIGMA CHEMICAL CO., St. Louis, […].). Left sciatic nerves (with the same injury as the right side) were injected with vehicle alone (0.1% bovine serum albumin in PBS). Muscle incisions were sutured and the skin closed with metal clips. After recovery from the anesthetic, animals were returned to standard housing. Two days (for crush injury) and four days (for transection injury) after surgery, nerves were removed under anesthesia and fixed as described below. One of the eight animals receiving nerve transection and repair was excluded because loss of continuity in one nerve occurred during convalescence.
The hypothesis that chondroitinase treatment improves axonal growth through the site of nerve coaptation was tested. Bilateral neurotmesis was achieved by a scissor cut of the sciatic nerves which were then repaired by epineurial suture and fibrin glue. One nerve was injected with chondroitinase ABC and the contralateral nerve received vehicle alone. Because of the latency of regeneration after nerve transection, axonal growth across the coaptation was examined four days after injury. In control nerves, the ingress of axons occurred mainly in patches and was limited to discrete subsections of the distal nerve; otherwise only a few axons were found scattered throughout the remaining nerve cross-section, as shown in FIG. 14A. The number of axons extending farther into the distal (after 4 days) rapidly diminished and approached zero within 3 mm from the coaptation. In contrast, axon ingress into chondroitinase-treated nerves was more robust and widespread throughout the entire nerve cross-section. In 7/7 animals, the number of axons that entered the distal nerve was greater in the chondroitinase-treated nerve than in the control nerve. […] It was clear that axon growth in all portions of the distal nerve was strictly linear and aligned with the longitudinal axis of the nerve.

[2] = test system: embryonic chick DRG neurons; test: Cryoculture bioassay on sections of acellular rat nerve segments; assay type: cell-based
Method: (§2) Cryoculture bioassay. Cryoculture is a neurite outgrowth assay in which neurons are cultured directly on fresh/frozen nerve sections and was performed as described previously (Ferguson T A et al. [2000] Mol Cell Neurosci, 16:157-167). Briefly, chondroitinase- and vehicle-treated nerve segments were sectioned at 20 μm, mounted on sterile, aminopropyltriethoxysilane (APTS)-coated coverslips and stored at −20° C. until used. Where indicated, sections were treated with chondroitinase ABC (0.1 unit/ml) or vehicle (50 mM Tris-HCl, pH 8.0), containing 50 mM NaCl) for 2 h at 37° C. Purified dorsal root ganglionic (DRG) neurons from day 8 chick embryos were seeded directly on the nerve sections in a defined N2 medium (Bottenstein J E et al. [1980] Exp Cell Res 125:183-190) containing 10 ng/ml nerve growth factor. […] Neurite lengths were measured directly using IMAGE-PRO PLUS software (MEDIA CYBERNETICS, Silver Springs, Md.). At least 250 neurons with neurites greater than one cell body (˜15 μm) were scored for each condition in each experiment.
Inactivation of inhibitory CSPG in chondroitinase-treated acellular nerve was determined by cryoculture bioassay. Embryonic chick DRG neurons were seeded onto sections of prepared nerve segments and the neurite-promoting activity was assessed by scoring neurite growth. […]

rat sciatic nerve [3] = test: Bilateral sciatic nerve crush injury (axonotmesis), GAP-43 axon scoring; assay type: in vivo; details: 2 days after injury; for axonal regeneration after nerve crush injury (GAP-43 immunoreactivity) vs vehicle: 1 U injected
Method: as §1
The hypothesis that chondroitinase treatment improves axonal growth through the site of nerve crush injury was tested. Bilateral axonotmesis was achieved by severely crushing the sciatic nerves while maintaining the continuity of the nerve sheaths. […] Regenerating axons were labeled by GAP-43 immunofluorescence and scored by digital image analysis. […]

chick DRG neurons = test: Cryoculture assay using human nerve segments; assay type: cell-based; details: DRG neurons 24 h on treated human nerve sections
Method: Human nerves were treated with chondroitinase and then assayed for neurite-promoting activity. Dissociated chick DRG neurons were grown on the sections for 24 h and neurite lengths were scored. Results are expressed as means (−SEM). Statistical significance (P<0.001) comparing vehicle-treated and chondroitinase-treated conditions was found using Student's t test.
as §2, with “C.” for “C. Purified dorsal root ganglionic (DRG) neurons from day 8 chick embryos were seeded directly on the nerve sections in a defined N2 medium (Bottenstein J E et al. [1980] Exp Cell Res 125:183-190) containing 10 ng/ml nerve growth factor.”, “experiment. […]” for “experiment.”

Q: chondroitinase ABC was tested. Which “animals in which number of axons entering distal nerve was greater than in control nerve” value (rat sciatic nerve [1]; 4 days after injury) did it give?
A: The value was 7/7.

Q: What about the “increase in axon score immediately distal to coaptation in 3/7 animals” value (rat sciatic nerve [1]; 4 days after injury, 3/7 animals) of the same substance?
A: The value was “greater than 3.5 fold”.

Q: What about the “score of axons immediately distal to the coaptation vs control” value (rat sciatic nerve [1]; 4 days after injury, average) of the same substance?
A: Its value is “two-fold greater”.

Q: And the “axon regeneration / ingress into the distal segment vs vehicle-treated controls” value (rat sciatic nerve [1])?
A: The value was “significantly greater”.

Q: And the “axon regeneration / ingress into the distal segment vs vehicle-treated controls” value (rat sciatic nerve [1]; listed as chondroitinase)?
A: Its value is “increased several-fold”.

Q: What about the “effect of post-treatment on neurite-promoting activity” value ([2]; sections from en bloc chondroitinase-treated nerve grafts) of the same substance?
A: The value was “only a slight additive effect”.

Q: What about the “increase in neurite-promoting activity by post-treatment of sections” value ([2]; sections of acellular nerve treated en bloc with vehicle only, post-treated after sectioning) of the same substance?
A: The value was 86%.

Q: And the “latency or rate of axonal regeneration after crush” value (rat sciatic nerve [3])?
A: The value was “no indication that the latency or rate of axonal regeneration was altered”.

Q: What about the “axonal regeneration after nerve crush injury (GAP-43 immunoreactivity) vs vehicle” value (rat sciatic nerve [3]) of the same substance?
A: Its value is “no significant difference”.

Q: What about the “axonal regeneration after nerve crush injury (GAP-43 immunoreactivity) vs vehicle” value (rat sciatic nerve [3]; listed as chondroitinase) of the same substance?
A: The value was “not significantly effected”.

Q: What about the “growth-promoting properties of human nerves (neurite length)” value (chick DRG neurons) of the same substance?
A: The value was “increased”.
